Data: the supplement of paper PMC10307832

How the values were obtained:
Experiment in all cases: relative viability (nuclei count vs DMSO), 5 days (fraction); higher = more cells survive
201T = tested on: 201T
Outline: (§1)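 One day after seeding in 1536-well plates, lung cancer cell lines were dosed by pin tool. Dosing was either single-drug or a fixed anchor-drug dose plus five library-drug doses (not always all listed) in √10 steps. After 5 days, nuclei were stained in one fix-and-stain step and counted on 4× images, and relative viability is the nuclei count of treated wells over that of vehicle wells, given as the median of duplicate plates.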

A-427 = tested on: A-427
Outline: as §1

BEN = tested on: BEN
Outline: as §1

COR-L23 = tested on: COR-L23
Outline: as §1

EKVX = tested on: EKVX
Outline: as §1

EMC-BAC-2 = tested on: EMC-BAC-2
Outline: as §1

EPLC-272H = tested on: EPLC-272H
Outline: as §1

HCC-44 = tested on: HCC-44
Outline: as §1

HCC-827 = tested on: HCC-827
Outline: as §1

LCLC-103H = tested on: LCLC-103H
Outline: as §1

LK-2 = tested on: LK-2
Outline: as §1

LXF-289 = tested on: LXF-289
Outline: as §1

NCI-H1650 = tested on: NCI-H1650
Outline: as §1

NCI-H1651 = tested on: NCI-H1651
Outline: as §1

NCI-H1793 = tested on: NCI-H1793
Outline: as §1

NCI-H1915 = tested on: NCI-H1915
Outline: as §1

NCI-H2087 = tested on: NCI-H2087
Outline: as §1

NCI-H2126 = tested on: NCI-H2126
Outline: as §1

NCI-H2347 = tested on: NCI-H2347
Outline: as §1

NCI-H358 = tested on: NCI-H358
Outline: as §1

NCI-H460 = tested on: NCI-H460
Outline: as §1

NCI-H596 = tested on: NCI-H596
Outline: as §1

SW 1573 = tested on: SW 1573
Outline: as §1

Compound: O=c1[nH]c2ccccc2n1C1CCN(CCCC(c2ccc(F)cc2)c2ccc(F)cc2)CC1 [Pimozide] + CCNC(=O)c1noc(-c2cc(C(C)C)c(O)cc2O)c1-c1ccc(CN2CCOCC2)cc1 [Luminespib] (partner 0.01 µM)
- relative viability (201T; first compound 0.08 µM): 1.05
- relative viability (201T; first compound 0.253 µM): 1.02
- relative viability (201T; first compound 0.8 µM): 0.971
- relative viability (201T; first compound 2.53 µM): 0.961
- relative viability (201T; first compound 8 µM): 0.912
- relative viability (A-427; first compound 0.08 µM): 0.703
- relative viability (A-427; first compound 0.253 µM): 0.793
- relative viability (A-427; first compound 0.8 µM): 0.936
- relative viability (A-427; first compound 2.53 µM): 0.857
- relative viability (A-427; first compound 8 µM): 0.768
- relative viability (BEN; first compound 0.08 µM): 0.3
- relative viability (BEN; first compound 0.253 µM): 0.413
- relative viability (BEN; first compound 0.8 µM): 0.324
- relative viability (BEN; first compound 2.53 µM): 0.368
- relative viability (BEN; first compound 8 µM): 0.331
- relative viability (COR-L23; first compound 0.08 µM): 0.603
- relative viability (COR-L23; first compound 0.253 µM): 0.628
- relative viability (COR-L23; first compound 0.8 µM): 0.594
- relative viability (COR-L23; first compound 2.53 µM): 0.61
- relative viability (COR-L23; first compound 8 µM): 0.707
- relative viability (EKVX; first compound 0.08 µM): 0.699
- relative viability (EKVX; first compound 0.253 µM): 0.86
- relative viability (EKVX; first compound 0.8 µM): 0.807
- relative viability (EKVX; first compound 2.53 µM): 0.909
- relative viability (EKVX; first compound 8 µM): 0.802
- relative viability (EMC-BAC-2; first compound 0.08 µM): 1.13
- relative viability (EMC-BAC-2; first compound 0.253 µM): 1.1
- relative viability (EMC-BAC-2; first compound 0.8 µM): 1.18
- relative viability (EMC-BAC-2; first compound 2.53 µM): 1.18
- relative viability (EMC-BAC-2; first compound 8 µM): 1.16
- relative viability (EPLC-272H; first compound 0.08 µM): 0.622
- relative viability (EPLC-272H; first compound 0.253 µM): 0.557
- relative viability (EPLC-272H; first compound 0.8 µM): 0.185
- relative viability (EPLC-272H; first compound 2.53 µM): 0.244
- relative viability (EPLC-272H; first compound 8 µM): 0.206
- relative viability (HCC-44; first compound 0.08 µM): 1.17
- relative viability (HCC-44; first compound 0.253 µM): 1.02
- relative viability (HCC-44; first compound 0.8 µM): 0.953
- relative viability (HCC-44; first compound 2.53 µM): 0.994
- relative viability (HCC-44; first compound 8 µM): 1.01
- relative viability (HCC-827; first compound 0.253 µM): 0.58
- relative viability (HCC-827; first compound 0.8 µM): 0.413
- relative viability (HCC-827; first compound 2.53 µM): 0.625
- relative viability (HCC-827; first compound 8 µM): 0.582
- relative viability (LCLC-103H; first compound 0.08 µM): 0.942
- relative viability (LCLC-103H; first compound 0.253 µM): 1.01
- relative viability (LCLC-103H; first compound 0.8 µM): 0.762
- relative viability (LCLC-103H; first compound 2.53 µM): 0.899
- relative viability (LCLC-103H; first compound 8 µM): 0.948
- relative viability (LK-2; first compound 0.08 µM): 0.18
- relative viability (LK-2; first compound 0.253 µM): 0.165
- relative viability (LK-2; first compound 2.53 µM): 0.18
- relative viability (LK-2; first compound 8 µM): 0.188
- relative viability (LXF-289; first compound 0.08 µM): 0.642
- relative viability (LXF-289; first compound 0.253 µM): 0.634
- relative viability (LXF-289; first compound 0.8 µM): 0.702
- relative viability (LXF-289; first compound 2.53 µM): 0.664
- relative viability (LXF-289; first compound 8 µM): 0.632
- relative viability (NCI-H1650; first compound 0.08 µM): 0.206
- relative viability (NCI-H1650; first compound 0.253 µM): 0.204
- relative viability (NCI-H1650; first compound 0.8 µM): 0.187
- relative viability (NCI-H1650; first compound 2.53 µM): 0.187
- relative viability (NCI-H1650; first compound 8 µM): 0.199
- relative viability (NCI-H1651; first compound 0.08 µM): 0.91
- relative viability (NCI-H1651; first compound 0.253 µM): 0.756
- relative viability (NCI-H1651; first compound 0.8 µM): 0.696
- relative viability (NCI-H1651; first compound 2.53 µM): 0.867
- relative viability (NCI-H1651; first compound 8 µM): 0.807
- relative viability (NCI-H1793; first compound 0.253 µM): 0.166
- relative viability (NCI-H1793; first compound 0.8 µM): 0.207
- relative viability (NCI-H1793; first compound 2.53 µM): 0.169
- relative viability (NCI-H1793; first compound 8 µM): 0.149
- relative viability (NCI-H1915; first compound 0.08 µM): 0.807
- relative viability (NCI-H1915; first compound 0.253 µM): 0.8
- relative viability (NCI-H1915; first compound 0.8 µM): 0.714
- relative viability (NCI-H1915; first compound 2.53 µM): 0.666
- relative viability (NCI-H1915; first compound 8 µM): 0.782
- relative viability (NCI-H2087; first compound 0.08 µM): 0.192
- relative viability (NCI-H2087; first compound 0.253 µM): 0.205
- relative viability (NCI-H2087; first compound 2.53 µM): 0.171
- relative viability (NCI-H2087; first compound 8 µM): 0.228
- relative viability (NCI-H2126; first compound 0.08 µM): 0.901
- relative viability (NCI-H2126; first compound 0.253 µM): 0.889
- relative viability (NCI-H2126; first compound 0.8 µM): 0.842
- relative viability (NCI-H2126; first compound 2.53 µM): 0.877
- relative viability (NCI-H2126; first compound 8 µM): 0.839
- relative viability (NCI-H2347; first compound 0.253 µM): 0.3
- relative viability (NCI-H2347; first compound 0.8 µM): 0.374
- relative viability (NCI-H2347; first compound 2.53 µM): 0.582
- relative viability (NCI-H2347; first compound 8 µM): 0.266
- relative viability (NCI-H358; first compound 0.08 µM): 0.317
- relative viability (NCI-H358; first compound 0.253 µM): 0.382
- relative viability (NCI-H358; first compound 0.8 µM): 0.333
- relative viability (NCI-H358; first compound 2.53 µM): 0.399
- relative viability (NCI-H358; first compound 8 µM): 0.206
- relative viability (NCI-H460; first compound 0.08 µM): 0.0367
- relative viability (NCI-H460; first compound 0.253 µM): 0.0252
- relative viability (NCI-H460; first compound 0.8 µM): 0.0202
- relative viability (NCI-H460; first compound 2.53 µM): 0.0243
- relative viability (NCI-H460; first compound 8 µM): 0.0256
- relative viability (NCI-H596; first compound 0.08 µM): 0.97
- relative viability (NCI-H596; first compound 0.253 µM): 1.11
- relative viability (NCI-H596; first compound 0.8 µM): 1.11
- relative viability (NCI-H596; first compound 2.53 µM): 0.776
- relative viability (NCI-H596; first compound 8 µM): 0.847
- relative viability (SW 1573; first compound 0.08 µM): 0.214
- relative viability (SW 1573; first compound 0.253 µM): 0.301
- relative viability (SW 1573; first compound 0.8 µM): 0.188
- relative viability (SW 1573; first compound 2.53 µM): 0.223
- relative viability (SW 1573; first compound 8 µM): 0.198
